We go through 2 compounds from patent US10851084B2, “Piperazine derivatives as TRPML modulators” (CalyGene Biotechnology, Inc., priority 2016, dated 2020).

One assay concerns ML1-4A. To be noted: HEK293 cells stably or transiently expressing ML1-4A; cited from earlier work.
For a further assay, the system named is TRPML1. The following applies: cited from earlier work.
A further assay concerns the target T1, TRPML2 (Homo sapiens, UniProt Q8IZK6).
T1 sequence (Q8IZK6 1-566): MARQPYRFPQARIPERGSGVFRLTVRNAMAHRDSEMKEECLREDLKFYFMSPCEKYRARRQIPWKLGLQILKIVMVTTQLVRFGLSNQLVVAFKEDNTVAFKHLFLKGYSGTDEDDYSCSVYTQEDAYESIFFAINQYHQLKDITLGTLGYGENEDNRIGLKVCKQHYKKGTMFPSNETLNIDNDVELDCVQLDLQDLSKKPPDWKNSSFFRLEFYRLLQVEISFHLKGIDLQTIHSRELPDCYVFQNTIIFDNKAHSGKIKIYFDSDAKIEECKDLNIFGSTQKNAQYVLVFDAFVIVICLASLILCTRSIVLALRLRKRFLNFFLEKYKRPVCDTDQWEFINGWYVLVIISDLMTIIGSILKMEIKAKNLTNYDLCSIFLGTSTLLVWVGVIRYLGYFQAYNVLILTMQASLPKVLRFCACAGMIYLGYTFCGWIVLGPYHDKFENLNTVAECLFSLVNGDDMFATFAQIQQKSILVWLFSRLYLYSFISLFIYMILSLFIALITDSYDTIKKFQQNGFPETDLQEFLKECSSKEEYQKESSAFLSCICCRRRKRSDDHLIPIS
The following applies: cited from earlier work.

The target of a further assay is T2, TRPML3 (Homo sapiens, UniProt Q8TDD5).
T2 sequence (Q8TDD5 1-553): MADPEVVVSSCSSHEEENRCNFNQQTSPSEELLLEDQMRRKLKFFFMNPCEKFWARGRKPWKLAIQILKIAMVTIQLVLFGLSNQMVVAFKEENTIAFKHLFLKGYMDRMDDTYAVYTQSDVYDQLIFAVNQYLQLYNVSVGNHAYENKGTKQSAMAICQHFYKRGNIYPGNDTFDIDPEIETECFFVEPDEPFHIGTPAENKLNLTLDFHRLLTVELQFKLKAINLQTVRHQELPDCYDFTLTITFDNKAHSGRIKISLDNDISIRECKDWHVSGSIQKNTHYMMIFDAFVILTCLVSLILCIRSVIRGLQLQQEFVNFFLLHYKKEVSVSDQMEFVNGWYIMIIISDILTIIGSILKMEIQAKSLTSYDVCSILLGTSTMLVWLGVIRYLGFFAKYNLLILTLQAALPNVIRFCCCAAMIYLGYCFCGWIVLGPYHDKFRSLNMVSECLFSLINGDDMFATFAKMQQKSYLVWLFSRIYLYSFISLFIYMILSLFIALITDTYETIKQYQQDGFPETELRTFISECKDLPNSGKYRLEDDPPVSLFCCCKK
To be noted: cited from earlier work.

For assay [1], the system named is six other related channels. To be noted: cited from earlier work.
Assay [2] deals with T3, endogenous whole-endolysosome TRPML-like current (IML-L) (Homo sapiens, UniProt Q9GZU1).
T3 construct: host or cells: endogenous in human fibroblasts (WT and ML4); also CHO, Cos-1, HEK293, skeletal muscle, pancreatic β and macrophage cells
T3 sequence (Q9GZU1 whole entry): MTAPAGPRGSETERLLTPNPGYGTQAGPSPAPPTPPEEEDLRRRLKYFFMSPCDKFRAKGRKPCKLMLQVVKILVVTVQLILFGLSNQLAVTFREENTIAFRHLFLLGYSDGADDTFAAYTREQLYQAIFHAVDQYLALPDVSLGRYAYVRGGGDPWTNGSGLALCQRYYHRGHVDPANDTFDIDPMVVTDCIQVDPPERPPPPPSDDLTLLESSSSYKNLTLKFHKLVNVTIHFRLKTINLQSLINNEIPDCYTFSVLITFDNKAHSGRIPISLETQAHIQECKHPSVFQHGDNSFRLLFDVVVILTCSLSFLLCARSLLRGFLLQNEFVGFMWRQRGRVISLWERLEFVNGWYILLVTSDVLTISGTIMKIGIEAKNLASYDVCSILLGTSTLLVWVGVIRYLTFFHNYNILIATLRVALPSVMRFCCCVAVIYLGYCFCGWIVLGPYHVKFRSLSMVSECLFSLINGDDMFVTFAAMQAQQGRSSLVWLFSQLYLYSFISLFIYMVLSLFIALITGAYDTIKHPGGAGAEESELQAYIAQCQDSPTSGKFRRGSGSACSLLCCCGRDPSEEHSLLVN
The following applies: wild-type (WT; ML1+/+) human fibroblasts; cited from earlier work.

In assay [3] the test system is endogenous whole-endolysosome TRPML-like current (IML-L). The following applies: cited from earlier work.
For another assay, the system named is TRPMLs. The following applies: cited from earlier work.
In a further assay the test system is TFEB. Kind of assay: TFEB nuclear translocation assay. The class given is cell-based. To be noted: HEK293 cells stably expressing GFP-TFEB; dose-dependent, FIG. 2. The method, then: TFEB is a transcription factor and master regulator of lysosome biogenesis and autophagy. TFEB activation is shown to induce cellular clearance in a variety of LSDs and common neurodegenerative diseases.
Intracellular TFEB localization is determined either by immunofluorescence in Hela cells or by fluorescent microscopy in Hela cells stably expressing TFEB-GFP. Detailed procedures are as follows.
Cells grown on cover slips were treated with TRPML1 agonist(s) or antagonist(s) for indicated time period and then fixed with 4% paraformaldehyde for 15 minutes at room temperature. For immunofluorescent detection of endogenous TFEB, cells were permeabilized with 0.3% Triton X-100, blocked with 1% bovine serum albumin (BSA) in phosphate buffered saline (PBS) and then immunostained with anti-TFEB antibody (1:200; Cell Signaling Technology) at 4° C. for overnight. The stained cells were then incubated with secondary antibodies conjugated to Alexa Fluor 568 or 488 (ThermoFisher) for 1 h, then 4′,6-diamidino-2-phenylindole (DAPI) for 15 minutes (to stain the cell nucleus) and mounted on glass slides with Fluoromount-G (Southern Biotech) for observation. […]
Average ratios of nuclear versus cytosolic TFEB fluorescence intensity (>50 randomly-selected cells per experiment) were determined with ImageJ software (NIH).

Another assay concerns HaCat cells. Nature of the assay: UV treatment and ROS staining. To be noted: 600 J/m^2 UV (254 nm), H2DCFDA, FIG. 3. In kind it is cell-based, human. The method, then:
HaCat cells (a human keratinocyte cell line) at a confluency of around 50% were incubated with 20 µM H2DCFDA (Sigma) in the culture media without FBS at 37° C. for 30 min, and then washed twice with phosphate buffered saline (PBS, pH 7.4) before being exposed to UV. A CL-1000 UV Crosslinker (UVP) is used to shed 600 J/m^2 of UV light (254 nm) on the HaCat cells in all experiments. Fluorescent images were obtained right after UV exposure, via an Olympus IX73 microscopy (Olympus) and Metamorph software (Molecular Devices).

Structures are written as SMILES.

`CC1CC(C)(C)N(C(=O)CN2C(=O)c3ccccc3C2=O)c2ccccc21` (stereo not shown) [ML-SA1]: the “[Ca2+]cyt increases” value in the assay on ML1-4A is “significant”. The “activation of whole-endolysosome IML1 compared with PI(3,5)P2 (1 μM)” value in the assay with TRPML1 (ML-SA1 10 μM) is on record as “comparable”. In the assay with TRPML1 (whole-cell), the “activation of whole-cell IML1-4A” value was “robustly activated”. Also, the “activation of whole-endolysosome IML1” value in the assay with TRPML1 (whole-endolysosome) was “robustly activated”. Besides, the “activation of whole-cell ITRPML2” value at TRPML2 is reported as “activated”. For the same compound, at TRPML3, the “activation of whole-cell ITRPML3” value is recorded as “activated”. For the same compound, the “activation of six other related channels” value in assay [1] was “not”. Moreover, the “activation of whole-endolysosome IML-L” value in assay [2] was “activated”; in [3] (ML4 (ML1−/−) human fibroblasts), “not”. In addition, in assay [3] (all mammalian cell types investigated (CHO, Cos-1, HEK293, skeletal muscle, pancreatic β, macrophage cells)), the “activation of endogenous whole-endolysosome IML-L” value is listed as “activated”. Also, in the assay on TRPMLs, the “concentration needed to effectively activate TRPMLs” value is approximately 10 µM.
`CN(C)S(=O)(=O)c1ccc(S(=O)(=O)Nc2ccccc2N2CCN(c3ccc(Cl)cc3F)CC2)cc1` [Example 8, N1-[2-[4-(4-Chloro-2-fluorophenyl)-1-piperazinyl]phenyl]-N4,N4-dimethylbenzene-1,4-disulfonamide]: the “TFEB-nuclear translocation (nuclear to cytosol ratio)” value in the assay on TFEB was “sufficient to induce TFEB-nuclear translocation”. In the assay on HaCat cells, the “UV induced ROS” value is reported as “significantly reduced”.
